Experimental data from BigSolDB 2.1.

O=C1c2cccc(Cl)c2C(=O)N1c1ccccc1
solubility (mole fraction)
Settings | in 1,4-dioxane | in acetic acid | in acetone | in acetonitrile | in ethyl acetate | in isobutanol | in isopropanol | in methanol | in n-butanol | in n-propanol
288.15 K | 0.00825 | 0.000923 | 0.00298 | 0.00196 | 0.0021 | 0.000116 | 7.27e-05 | 0.000147 | 0.000183 | 0.000162
290.65 K | 0.00898 | 0.00104 | 0.00324 | 0.00216 | 0.00232 | 0.000128 | 8.36e-05 | 0.000171 | 0.000204 | 0.000187
293.15 K | 0.00979 | 0.00116 | 0.00358 | 0.00236 | 0.00255 | 0.000149 | 9.82e-05 | 0.000194 | 0.000234 | 0.000226
295.65 K | 0.0107 | 0.0013 | 0.00392 | 0.00258 | 0.00284 | 0.000167 | 0.000111 | 0.00022 | 0.000266 | 0.000266
298.15 K | 0.0115 | 0.00145 | 0.00429 | 0.0028 | 0.00315 | 0.000189 | 0.000132 | 0.000249 | 0.000308 | 0.000311
300.65 K | 0.0125 | 0.00159 | 0.00468 | 0.00305 | 0.00347 | 0.000221 | 0.000151 | 0.00028 | 0.000345 | 0.000353
303.15 K | 0.0134 | 0.00175 | 0.00505 | 0.00332 | 0.0038 | 0.000258 | 0.000178 | 0.000308 | 0.000388 | 0.000411
305.65 K | 0.0145 | 0.00189 | 0.00551 | 0.00361 | 0.00412 | 0.000296 | 0.000208 | 0.000339 | 0.000432 | 0.000468
308.15 K | 0.0158 | 0.00206 | 0.00597 | 0.00397 | 0.00448 | 0.000341 | 0.000237 | 0.000381 | 0.000478 | 0.000527
310.65 K | 0.0171 | 0.00225 | 0.00654 | 0.0043 | 0.00484 | 0.000392 | 0.000268 | 0.000428 | 0.000535 | 0.000593
313.15 K | 0.0188 | 0.00248 | 0.00718 | 0.0047 | 0.00525 | 0.000457 | 0.000305 | 0.000478 | 0.000597 | 0.000668
315.65 K | 0.0204 | 0.00273 | 0.00779 | 0.00514 | 0.00568 | 0.000526 | 0.000345 | 0.000533 | 0.000665 | 0.000747
318.15 K | 0.0224 | 0.00299 | 0.00851 | 0.00553 | 0.00617 | 0.000599 | 0.000387 | 0.00059 | 0.00074 | 0.00083
320.65 K | 0.0243 | 0.00328 | 0.00919 | 0.00603 | 0.00669 | 0.000679 | 0.000445 | 0.000656 | 0.000821 | 0.000917
323.15 K | 0.0266 | 0.00364 | 0.00995 | 0.00655 | 0.00734 | 0.000762 | 0.00053 | 0.000745 | 0.000908 | 0.00103
